The test system of assay [1] is MCF-7. Briefly: Apoptosis by PARP cleavage (FACS), MCF-7. It is filed as cell-based, human. The conditions noted are these: MCF-7, 100 nM, 24 h. The method, then: (§1) FIG. 19: Effect of compound 27 on the apoptosis in cells with different p53 status. Extent of apoptosis in different cells was measured by staining the cells for PARP cleavage followed by FACS analysis. Cells were treated with 100 nM of the compound for 24 h and the level of apoptosis was seen. Percentage apoptotic populations are represented as the M2 gated population.
(§2) PARP Cleavage Assay using Flow Cytometry: Extent of PARP cleavage is determined using polyclonal antibody specifically recognizing the 85 kDa fragment of cleaved PARP (NSB 699 Novus Biologicals) and can be used as a marker for detecting apoptotic cells. Treated cells were fixed with 70% chilled ethanol and permeabilized for 30 min at RT (PBS+0.5% BSA+0.02% NaN3+0.5% saponin) and stained with anti PARP-FITC (10 μl/10^6 cells) for one hour at RT. Cells were washed twice with wash buffer (PBS+1% heat inactivated FBS) and analysed using FACS.

Assay [2] concerns HeLa cells. As to the kind of experiment: Apoptosis by PARP cleavage (FACS), HeLa. The conditions noted are these: 100 nM, 24 h. It is filed as cell-based, human. As to the method: as §1, §2
In assay [3] the test system is Jurkat cells. As to the kind of experiment: Measurement of reactive oxygen intermediates (ROI) by flow cytometry. It is filed as cell-based, human. To be noted: pretreated 1 h, TNF 1 nM 4 h. As to the method:
The production of ROI in cells treated with TNFα or LPS was determined by flow cytometer as described by (Manna, S. K. et. al., J. Immunol. (1999) 162(3):1510-1518). Briefly Jurkat cells (5×10^5 cells in one ml) were incubated either with RPMI 1640 medium supplemented with 10% FBS or with complete media containing different concentrations of CAMVE for 1 h at 37° C. Cells were then stimulated with 1 nM of TNF for 4 h. After incubation, the cells were washed with D-PBS, and resuspended in 1 ml D-PBS. To detect ROI production, cells were exposed to Dihydrorhodamine 123 (5 mM stock) at a final concentration of 1 μM for 1 hr at 37° C. with moderate shaking (100 rpm) and then washed with D-PBS three times and resuspended in 1 ml of D-PBS. Rhodamine 123 fluorescence intensity resulting from Dihydrorhodamine 123 oxidation was measured by FACS Calibur (Becton Dickinson) with excitation at 488 nm and was detected between […]. Data was analyzed using Cell Quest software (Becton Dickinson).

The subject of assay [4] is Jurkat cells. Briefly: Lipid peroxidation, TBARS assay. Type of assay: cell-based, human. To be noted: pretreated 3 h, TNF 1 nM 1 h. As to the method: Lipid peroxidation was assessed by the TBARS assay, which detects mainly malondialdehyde (MDA), a product of the peroxidation of polyunsaturated fatty acids and related esters. TBARS were measured by a modification of the method described previously, (Ohkawa et al., Anal. Biochem. 95:351-358. (1979)). Jurkat cells, 6×10^6 cells in 2 ml were pretreated with either media or different concentrations of CAMVE (as described in the Figure legends) for 3 h and then stimulated with 1 nM TNF for 1 h. Cells were washed before undergoing three cycles of freeze-thawing in 200 μl of water. A 20 μl aliquot was subsequently removed for Bradford protein determination, and 800 μl of assay mix (0.4% (w/v) thiobarbituric acid, 0.5% (w/v) SDS, 9.4% (v/v) acetic acid, pH 3.5) was added to the remaining sample. Samples were incubated for 60 min at 95° C., cooled at room temperature, and centrifuged at 14,000×g for 10 min, and the absorbance of the supernatants was read at 532 nm against a standard curve prepared using the MDA standard (10 mM 1,1,3,3-tetramethoxypropane in 20 mM Tris-HCL, pH 7.4). Results were calculated as nmol of MDA equivalents/mg of protein and expressed as a percentage of matched control values.

Assay [5] deals with U937. Briefly: Cytotoxicity (MTT) in different human tumor cell lines. It is filed as cell-based. The conditions noted are these: 30 μM, 72 h. As to the method:
FIG. 9: CAMVE induces differential cytotoxicity in different human tumor cell lines. Different human tumor cell lines were cultured either in the presence or absence of CAMVE (30 μM) for 72 h. The MTT assay was done and absorbance taken at 570 nm. The result indicated are mean O.D. of triplicate culture.
Cytotoxicity was assayed by the modified tetrazolium salt 3-(4,5-dimethylthiazol-2-yl)-2,5-diphenyltetrazolium bromide (MTT) assay as described by Plumb, J A et al. (Cancer Res. 1989 Aug. 15; 49(16):4435-4440).

In assay [6] the test system is NF-κB. As to the kind of experiment: NF-κB activation assay, RAW 264.7. Type of assay: cell-based, mouse. The conditions noted are these: RAW 264.7, 100 ng/ml LPS 30 min. As to the method:
FIG. 4: Effect of CAMVE on NF-κB activation in different cell lines. A. HeLa, MCF-7, U937, were incubated at 37° C. for 3 h with 15 μM dose of CAMVE and then stimulated with 0.1 nM TNF for 30 min. After these treatments, nuclear extracts were prepared and assayed for NF-κB using BD Transfactor ELISA method. B. RAW 264.7 cells pretreated with indicated doses of CAMVE were stimulated with 100 ng/ml LPS for 30 min and assayed for NF-κB activation.
Cell pellet was resuspended in lysis buffer (10 mM HEPES, pH 7.9, 1.5 mM MgCl2, 10 mM KCl, 1 mM PMSF, 1 mMDTT, 0.5% NP 40, 0.1 mM EGTA and 0.1 mM EDTA) and allowed to swell on ice for 15 min, followed by centrifugation at 3300×g for 20 min. The cell pellet was resuspended in a volume of lysis buffer equal to the cell pellet volume. The cell suspension was slowly drawn down into a syringe and ejected the content in a single stroke. Disrupted cells were incubated for 15 min on ice, and the disrupted cell suspension was centrifuged at 10,000×g for 20 min at 4° C. […]
The assay was performed by using wells coated with oligonucleotides having the consensus DNA binding sites for the specific transcription factors. […] Bound transcription factor was detected by a specific Primary Antibody. […] After addition of the substrate, the Absorbance was recorded at 655 nm.

The source of these data is patent publication US20100168228A1, “NOVEL CHEMOTHERAPEUTIC AGENTS AGAINST INFLAMMATION AND CANCER” (RELIANCE LIFE SCIENCES PVT. LTD., priority 2006, published 2010).

Molecules are shown by their SMILES.

Consider `COc1cc([C@@H]2Oc3c(OC)cc(/C=C/C(=O)O)cc3[C@H]2C(=O)O)ccc1O` [compound 27, 5-[(E)-2-carboxyvinyl]-2β-(4-hydroxy-3-methoxyphenyl)-7-methoxy-2,3-dihydro-1-benzofuran-3α-carboxylic acid], for which the “level of apoptosis (PARP cleavage)” value was “comparable to that of Jurkat cell line” in assay [1] and “significant induction of apoptosis” in assay [2].

`COC(=O)c1ccc(OC(=O)/C=C/c2ccc(O)c(O)c2)c(OC)c1` [compound 1, Methyl 4-{[(2E)-3-(3,4-dihydroxyphenyl)prop-2-enoyl]oxy}-3-methoxybenzoate]: the “TNF induced ROI generation” value in assay [3] is “suppressed on pretreatment of cells with CAMVE in a dose dependent fashion”. Also, the “TNF induced lipid peroxidation” value in assay [4] is recorded as “significantly suppressed by CAMVE in a dose dependent manner”. Besides, the “CAMVE mediated cell death (MTT), sensitivity among tumor cell lines” value in assay [5] was “most sensitive to CAMVE treatment”. For the same molecule, the “LPS induced NF-κB activation” value in assay [6] was “inhibited NF-κB activation in murine cells”.
